According to ChEMBL document CHEMBL5465560, “Selectivity Literature for EUbOPEN Chemogenomic Library” (2024):
One block for each compound: values may come before it.

Key:
[1] = target: Tyrosine-protein kinase Yes (Homo sapiens) (UniProt P07947); test: Selectivity interaction (Kinase panel (Z-LYTE Assay)) EUB0001632a YES1; settings: at 10 µM
[2] = target: T1, Gamma-aminobutyric acid receptor subunit alpha-1 (Homo sapiens) (UniProt P14867); test: Selectivity interaction (Eurofins CEREP Diversity Profile (receptors and ion channels)) EUB0000279b GABRA1; settings: at 10 µM
T1 sequence (whole entry): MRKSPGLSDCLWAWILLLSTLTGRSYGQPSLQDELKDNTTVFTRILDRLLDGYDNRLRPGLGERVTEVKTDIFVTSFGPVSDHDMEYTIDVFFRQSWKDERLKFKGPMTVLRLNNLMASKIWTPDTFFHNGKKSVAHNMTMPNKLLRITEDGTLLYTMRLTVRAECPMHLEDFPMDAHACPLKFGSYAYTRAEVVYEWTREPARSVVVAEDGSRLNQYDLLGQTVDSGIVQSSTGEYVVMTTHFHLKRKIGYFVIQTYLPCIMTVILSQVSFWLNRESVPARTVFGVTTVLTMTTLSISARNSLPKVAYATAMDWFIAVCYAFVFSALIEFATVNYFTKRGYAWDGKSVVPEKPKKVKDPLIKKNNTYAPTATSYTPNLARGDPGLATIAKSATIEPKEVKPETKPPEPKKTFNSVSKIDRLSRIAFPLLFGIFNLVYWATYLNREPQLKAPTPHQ

[3] = target: Mitogen-activated protein kinase 1 (Homo sapiens, UniProt P28482); test: Selectivity interaction (KinomeScan (DiscoverX)) EUB0000607a MAPK1; settings: at 10 µM
[4] = target: Tyrosine-protein kinase ABL1 (Homo sapiens, UniProt P00519); test: Selectivity interaction (KinomeScan (DiscoverX)) EUB0000607a ABL1; settings: at 10 µM
[5] = target: T2, Serine/threonine-protein kinase Nek9 (Homo sapiens) (UniProt Q8TD19); test: Selectivity interaction (KinomeScan (DiscoverX)) EUB0001049a NEK9; settings: at 1 µM
T2 sequence (whole entry): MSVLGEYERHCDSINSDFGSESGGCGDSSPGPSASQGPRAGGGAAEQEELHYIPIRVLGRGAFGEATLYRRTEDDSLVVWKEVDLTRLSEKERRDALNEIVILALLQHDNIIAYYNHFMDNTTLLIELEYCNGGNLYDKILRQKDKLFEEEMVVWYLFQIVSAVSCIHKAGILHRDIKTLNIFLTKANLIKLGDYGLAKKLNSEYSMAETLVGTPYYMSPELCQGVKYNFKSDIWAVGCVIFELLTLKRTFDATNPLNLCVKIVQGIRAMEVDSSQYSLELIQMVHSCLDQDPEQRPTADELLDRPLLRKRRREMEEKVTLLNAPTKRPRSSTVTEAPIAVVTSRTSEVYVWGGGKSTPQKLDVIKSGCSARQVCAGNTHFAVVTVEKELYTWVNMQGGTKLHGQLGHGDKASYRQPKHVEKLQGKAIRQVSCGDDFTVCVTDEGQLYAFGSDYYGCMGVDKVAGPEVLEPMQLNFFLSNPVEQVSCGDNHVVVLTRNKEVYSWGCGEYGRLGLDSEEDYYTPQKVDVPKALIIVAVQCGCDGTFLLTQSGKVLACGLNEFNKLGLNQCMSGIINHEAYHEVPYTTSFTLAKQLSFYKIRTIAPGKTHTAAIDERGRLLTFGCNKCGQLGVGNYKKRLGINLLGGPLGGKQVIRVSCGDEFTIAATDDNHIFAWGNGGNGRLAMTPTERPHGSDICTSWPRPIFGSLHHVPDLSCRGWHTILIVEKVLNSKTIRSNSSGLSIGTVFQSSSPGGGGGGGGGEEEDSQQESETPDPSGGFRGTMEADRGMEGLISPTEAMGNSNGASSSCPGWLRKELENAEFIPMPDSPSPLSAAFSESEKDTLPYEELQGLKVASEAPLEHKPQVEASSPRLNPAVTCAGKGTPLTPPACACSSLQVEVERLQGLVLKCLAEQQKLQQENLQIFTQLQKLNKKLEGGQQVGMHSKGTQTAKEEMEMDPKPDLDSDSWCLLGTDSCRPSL

[6] = target: Bromodomain adjacent to zinc finger domain protein 2A (Homo sapiens, UniProt Q9UIF9); test: Selectivity interaction (Bromodomain panel (DSF asssay)) EUB0000270b BAZ2A
[7] = target: Cyclin-dependent kinase-like 3 (Homo sapiens) (UniProt Q8IVW4); test: Selectivity interaction (KinomeScan (DiscoverX)) EUB0000229b CDKL3; settings: at 10 µM
[8] = target: Death-associated protein kinase 1 (Homo sapiens, UniProt P53355); test: Selectivity interaction (KinomeScan (DiscoverX)) EUB0000092b DAPK1; settings: at 10 µM
[9] = target: T3, Ephrin type-B receptor 4 (Homo sapiens) (UniProt P54760); test: Selectivity interaction (KinomeScan (DiscoverX)) EUB0000092b EPHB4; settings: at 10 µM
T3 sequence (whole entry): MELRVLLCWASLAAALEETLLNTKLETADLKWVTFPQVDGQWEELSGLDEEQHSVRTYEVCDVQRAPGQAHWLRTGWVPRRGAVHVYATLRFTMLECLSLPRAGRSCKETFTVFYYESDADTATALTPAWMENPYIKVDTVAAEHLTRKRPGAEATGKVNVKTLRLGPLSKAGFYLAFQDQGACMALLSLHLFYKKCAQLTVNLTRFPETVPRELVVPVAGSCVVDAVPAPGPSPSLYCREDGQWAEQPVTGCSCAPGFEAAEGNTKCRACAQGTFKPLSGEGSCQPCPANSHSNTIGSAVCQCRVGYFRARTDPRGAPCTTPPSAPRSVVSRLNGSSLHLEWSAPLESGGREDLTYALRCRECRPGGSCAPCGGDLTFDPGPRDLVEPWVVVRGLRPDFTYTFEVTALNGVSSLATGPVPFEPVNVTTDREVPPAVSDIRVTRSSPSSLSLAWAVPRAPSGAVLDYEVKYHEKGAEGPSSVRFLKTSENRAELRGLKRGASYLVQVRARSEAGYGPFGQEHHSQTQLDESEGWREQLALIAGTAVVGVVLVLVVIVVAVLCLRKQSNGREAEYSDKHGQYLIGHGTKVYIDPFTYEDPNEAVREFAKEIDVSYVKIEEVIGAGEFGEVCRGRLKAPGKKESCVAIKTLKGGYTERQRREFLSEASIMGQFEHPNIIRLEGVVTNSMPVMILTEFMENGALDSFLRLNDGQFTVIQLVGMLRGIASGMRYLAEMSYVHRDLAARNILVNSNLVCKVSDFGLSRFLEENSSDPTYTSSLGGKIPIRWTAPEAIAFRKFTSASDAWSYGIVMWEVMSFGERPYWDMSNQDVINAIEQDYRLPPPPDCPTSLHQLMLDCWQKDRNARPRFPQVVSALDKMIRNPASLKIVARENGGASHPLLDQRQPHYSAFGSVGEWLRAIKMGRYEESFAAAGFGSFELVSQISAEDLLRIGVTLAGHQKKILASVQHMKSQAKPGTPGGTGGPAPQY

[10] = target: Dual specificity mitogen-activated protein kinase kinase 2 (Homo sapiens) (UniProt P36507); settings: at 10 µM
Chain of Dual specificity mitogen-activated protein kinase kinase 2 (Homo sapiens) (P36507 whole entry): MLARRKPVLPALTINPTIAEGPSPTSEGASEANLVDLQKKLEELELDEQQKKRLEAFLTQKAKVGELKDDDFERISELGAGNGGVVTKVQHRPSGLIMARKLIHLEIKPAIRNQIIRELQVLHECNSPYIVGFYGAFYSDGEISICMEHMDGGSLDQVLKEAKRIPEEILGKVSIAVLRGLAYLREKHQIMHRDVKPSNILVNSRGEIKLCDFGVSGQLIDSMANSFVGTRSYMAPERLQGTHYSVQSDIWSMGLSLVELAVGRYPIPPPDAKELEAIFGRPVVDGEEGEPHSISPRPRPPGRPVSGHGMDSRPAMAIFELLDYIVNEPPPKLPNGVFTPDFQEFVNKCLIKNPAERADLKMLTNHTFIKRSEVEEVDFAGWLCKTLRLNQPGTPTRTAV

Chain of Death-associated protein kinase 1 (P53355 whole entry, looked up): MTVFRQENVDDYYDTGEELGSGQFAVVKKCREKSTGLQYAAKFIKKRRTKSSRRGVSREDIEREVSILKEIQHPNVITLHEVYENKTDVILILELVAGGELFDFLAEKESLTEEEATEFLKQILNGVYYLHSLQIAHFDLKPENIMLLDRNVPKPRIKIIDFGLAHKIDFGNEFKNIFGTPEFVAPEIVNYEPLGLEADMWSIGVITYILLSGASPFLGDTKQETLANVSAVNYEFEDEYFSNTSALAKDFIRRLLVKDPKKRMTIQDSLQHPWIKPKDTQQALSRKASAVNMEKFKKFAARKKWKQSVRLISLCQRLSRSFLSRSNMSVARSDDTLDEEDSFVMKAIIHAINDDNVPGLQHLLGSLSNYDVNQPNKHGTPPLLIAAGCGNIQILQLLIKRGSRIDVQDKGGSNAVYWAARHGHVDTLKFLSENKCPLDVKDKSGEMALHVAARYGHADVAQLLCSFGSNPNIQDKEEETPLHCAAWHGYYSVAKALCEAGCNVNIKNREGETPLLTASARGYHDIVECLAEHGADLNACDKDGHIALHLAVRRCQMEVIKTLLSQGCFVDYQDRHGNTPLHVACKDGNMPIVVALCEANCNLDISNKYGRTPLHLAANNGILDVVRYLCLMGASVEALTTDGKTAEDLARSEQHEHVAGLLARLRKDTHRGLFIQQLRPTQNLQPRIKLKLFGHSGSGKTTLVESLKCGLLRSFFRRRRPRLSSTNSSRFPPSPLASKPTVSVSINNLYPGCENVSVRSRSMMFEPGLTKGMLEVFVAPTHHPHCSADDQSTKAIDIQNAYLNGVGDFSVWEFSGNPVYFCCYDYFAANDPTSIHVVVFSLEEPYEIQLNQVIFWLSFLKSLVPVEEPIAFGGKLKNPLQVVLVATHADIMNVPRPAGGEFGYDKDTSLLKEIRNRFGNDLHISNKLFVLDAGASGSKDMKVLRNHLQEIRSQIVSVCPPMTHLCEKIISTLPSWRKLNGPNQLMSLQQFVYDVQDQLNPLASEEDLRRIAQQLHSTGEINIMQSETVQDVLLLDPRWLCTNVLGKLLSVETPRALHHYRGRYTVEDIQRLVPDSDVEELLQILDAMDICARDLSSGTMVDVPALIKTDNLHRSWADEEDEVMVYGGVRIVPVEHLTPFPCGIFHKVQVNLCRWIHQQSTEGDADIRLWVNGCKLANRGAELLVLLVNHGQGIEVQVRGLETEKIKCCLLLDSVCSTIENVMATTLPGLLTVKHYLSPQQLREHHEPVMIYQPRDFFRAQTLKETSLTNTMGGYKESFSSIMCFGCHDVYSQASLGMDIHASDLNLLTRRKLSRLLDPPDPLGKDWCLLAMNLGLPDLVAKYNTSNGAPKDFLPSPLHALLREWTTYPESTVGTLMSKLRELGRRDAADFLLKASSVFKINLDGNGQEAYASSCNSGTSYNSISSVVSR
Chain of Bromodomain adjacent to zinc finger domain protein 2A (Q9UIF9 whole entry, the tested form may be a part): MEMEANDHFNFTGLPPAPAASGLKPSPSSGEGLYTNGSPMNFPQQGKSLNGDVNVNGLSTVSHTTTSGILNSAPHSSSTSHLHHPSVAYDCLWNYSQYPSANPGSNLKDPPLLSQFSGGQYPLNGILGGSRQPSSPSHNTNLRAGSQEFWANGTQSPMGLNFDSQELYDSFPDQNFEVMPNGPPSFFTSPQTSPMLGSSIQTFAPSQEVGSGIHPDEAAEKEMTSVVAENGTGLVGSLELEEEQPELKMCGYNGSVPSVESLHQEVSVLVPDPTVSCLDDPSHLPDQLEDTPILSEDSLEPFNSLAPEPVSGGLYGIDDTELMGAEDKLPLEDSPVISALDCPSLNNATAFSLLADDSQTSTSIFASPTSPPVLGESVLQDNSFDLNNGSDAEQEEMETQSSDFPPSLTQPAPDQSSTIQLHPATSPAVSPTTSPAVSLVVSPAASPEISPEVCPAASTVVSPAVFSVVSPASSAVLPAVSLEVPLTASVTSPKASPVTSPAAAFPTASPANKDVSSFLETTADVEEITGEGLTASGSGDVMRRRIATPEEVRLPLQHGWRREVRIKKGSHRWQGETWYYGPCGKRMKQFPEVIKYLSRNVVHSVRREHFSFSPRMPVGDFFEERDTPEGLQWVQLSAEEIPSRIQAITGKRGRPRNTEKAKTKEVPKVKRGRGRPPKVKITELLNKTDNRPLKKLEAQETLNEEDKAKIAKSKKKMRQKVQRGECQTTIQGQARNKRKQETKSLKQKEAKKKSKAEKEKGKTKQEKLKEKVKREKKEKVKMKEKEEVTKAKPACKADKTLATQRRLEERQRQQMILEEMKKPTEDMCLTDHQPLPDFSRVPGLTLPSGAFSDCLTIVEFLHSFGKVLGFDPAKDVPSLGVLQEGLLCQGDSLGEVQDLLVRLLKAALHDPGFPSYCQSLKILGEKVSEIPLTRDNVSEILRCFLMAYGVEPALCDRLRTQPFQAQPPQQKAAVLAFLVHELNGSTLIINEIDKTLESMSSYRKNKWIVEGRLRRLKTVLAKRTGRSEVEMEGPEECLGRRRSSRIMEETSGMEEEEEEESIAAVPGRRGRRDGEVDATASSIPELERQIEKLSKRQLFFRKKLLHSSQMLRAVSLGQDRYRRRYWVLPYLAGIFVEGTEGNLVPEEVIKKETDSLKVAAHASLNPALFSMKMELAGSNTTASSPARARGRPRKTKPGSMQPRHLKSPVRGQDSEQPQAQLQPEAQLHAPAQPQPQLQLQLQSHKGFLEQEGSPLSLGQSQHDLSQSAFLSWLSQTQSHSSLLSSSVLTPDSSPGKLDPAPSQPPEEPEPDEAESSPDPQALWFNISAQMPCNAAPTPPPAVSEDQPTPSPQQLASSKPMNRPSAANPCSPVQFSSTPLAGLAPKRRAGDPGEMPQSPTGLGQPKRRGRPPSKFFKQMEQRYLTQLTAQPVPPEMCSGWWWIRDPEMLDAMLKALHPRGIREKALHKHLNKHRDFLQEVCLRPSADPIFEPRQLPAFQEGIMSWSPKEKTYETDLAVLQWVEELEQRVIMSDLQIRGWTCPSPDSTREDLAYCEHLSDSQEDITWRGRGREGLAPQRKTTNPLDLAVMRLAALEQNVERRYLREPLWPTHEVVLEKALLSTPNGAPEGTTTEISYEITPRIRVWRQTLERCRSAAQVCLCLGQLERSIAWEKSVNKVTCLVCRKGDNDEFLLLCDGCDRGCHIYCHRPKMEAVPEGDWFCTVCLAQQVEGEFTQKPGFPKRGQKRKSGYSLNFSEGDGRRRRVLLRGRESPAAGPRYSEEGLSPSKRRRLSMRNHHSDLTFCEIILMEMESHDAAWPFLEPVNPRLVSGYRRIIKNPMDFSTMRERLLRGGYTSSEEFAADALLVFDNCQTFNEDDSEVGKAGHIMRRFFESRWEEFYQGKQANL
Chain of Tyrosine-protein kinase Yes (Homo sapiens) (P07947 2-543 limits assumed): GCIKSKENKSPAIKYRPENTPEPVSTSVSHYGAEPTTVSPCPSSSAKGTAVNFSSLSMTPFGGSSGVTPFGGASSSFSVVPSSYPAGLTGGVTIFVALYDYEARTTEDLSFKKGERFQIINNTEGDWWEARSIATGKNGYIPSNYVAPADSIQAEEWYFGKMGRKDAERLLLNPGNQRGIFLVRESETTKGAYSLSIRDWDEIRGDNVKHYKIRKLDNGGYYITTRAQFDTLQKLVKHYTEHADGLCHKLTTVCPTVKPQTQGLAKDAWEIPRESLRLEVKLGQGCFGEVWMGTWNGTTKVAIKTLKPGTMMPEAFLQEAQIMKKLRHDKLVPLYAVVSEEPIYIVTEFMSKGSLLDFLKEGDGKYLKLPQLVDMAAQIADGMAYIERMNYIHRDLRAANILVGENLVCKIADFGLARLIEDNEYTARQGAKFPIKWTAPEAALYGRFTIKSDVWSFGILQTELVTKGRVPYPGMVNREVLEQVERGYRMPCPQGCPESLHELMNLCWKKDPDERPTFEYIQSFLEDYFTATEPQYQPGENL
Chain of Cyclin-dependent kinase-like 3 (Homo sapiens) (Q8IVW4 whole entry, looked up): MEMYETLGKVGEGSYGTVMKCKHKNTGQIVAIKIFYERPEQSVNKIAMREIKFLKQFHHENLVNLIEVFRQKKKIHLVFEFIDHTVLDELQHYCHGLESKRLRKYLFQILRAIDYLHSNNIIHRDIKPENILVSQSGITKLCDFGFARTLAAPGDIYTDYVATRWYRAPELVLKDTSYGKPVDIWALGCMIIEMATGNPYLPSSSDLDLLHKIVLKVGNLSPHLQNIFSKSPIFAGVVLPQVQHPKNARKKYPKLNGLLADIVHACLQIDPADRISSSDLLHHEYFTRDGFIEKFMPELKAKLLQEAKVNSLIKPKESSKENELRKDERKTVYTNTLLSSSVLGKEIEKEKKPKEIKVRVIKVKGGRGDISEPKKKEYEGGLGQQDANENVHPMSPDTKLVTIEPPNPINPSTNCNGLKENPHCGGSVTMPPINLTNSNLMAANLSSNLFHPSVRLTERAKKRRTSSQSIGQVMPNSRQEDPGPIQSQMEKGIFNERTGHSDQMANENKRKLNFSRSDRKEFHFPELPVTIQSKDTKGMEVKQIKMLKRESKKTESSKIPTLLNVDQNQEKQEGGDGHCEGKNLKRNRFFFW

- % of control [1]: 0.787%
SMILES: Cn1cc(-n2cnc3c(NCc4nc5cc(Cl)c(Cl)cc5[nH]4)nc(N4CCOCC4)nc32)cn1

- % of control [2]: 103%
SMILES: CC(=O)c1cc(-c2ccccc2OCC2CC2)c2ncccn12

SMILES: CNC(=O)Nc1ccc(-c2nc(N3CC4CCC(C3)O4)c3cnn(C4CCC5(CC4)OCCO5)c3n2)cc1
- % of control [3]: 87%
- % of control [4]: 100%

SMILES: COc1cc(Nc2nc(C)cc(-c3cnn4nc(OC)ccc34)n2)cc(C(F)(F)F)c1
- % of control [5]: 94%

- dTM [6]: -1.5 K
SMILES: Cc1cc(CN)cc(C)c1-c1ncn(C)c1-c1cncn1C

SMILES: COc1cc(N(C)c2ccnc3ccc(C(F)(F)F)cc23)cc(OC)c1OC
- % binding [7]: 88%

SMILES: CCC(=O)N1CCN(c2ccc(-n3c(=O)ccc4cnc5ccc(-c6cnc7ccccc7c6)cc5c43)cc2C(F)(F)F)CC1
- % of control [8]: 96%
- % of control [9]: 85%

SMILES: Cc1cc([C@@H](C)Nc2ccccc2C(=O)O)c2nc(N3CCOCC3)cc(=O)n2c1 [AZD-6482]
- % of control [10]: 100%
